Earlier results on two molecules are cited in patent US9826740B2, “Synergistic fungicidal compositions and methods of use” (ZELAM LIMITED, priority 2010, dated 2017).

Where two headings read alike, the source gives them in different places. Where only a bound is given, the exact number is not on record here.

For data set [1] the following is noted: pH 4-9; cited from earlier work.
The conditions of data set [2]: 20° C.; cited from earlier work.
For data set [3] the following is noted: cited from earlier work.
Data set [4] deals with human and yeast CYP51 (lanosterol-14α-demethylase). To be noted: cited from earlier work.
The conditions of data set [5]: cited from earlier work. This is another data set of the same source.
Where [6] appears, read: in words, temperature not given.

As to `CC(C)(C)C(O)(CCc1ccc(Cl)cc1)Cn1cncn1` (racemic) [Tebuconazole], the “Stability, hydrolysis DT50” value in data set [1] is recorded as “DT50 >1 y pH 4-9”. Further, in data set [2], the “Sol. Water” value is 36 mg/L (20° C.). Moreover, in data set [3] (20° C.), the “Sol. DCM” value is recorded as >200 g/L (20° C.), the Sol. hexane is on record as <0.1 g/L (20° C.) and the Sol. toluene is listed as 50-100 g/L (20° C.).

For Propiconazole, the “relative selectivity for the fungal enzyme (in words)” value in data set [4] (based on the IC50 ratio human/yeast) is “moderately selective”. Moreover, in data set [4] (human CYP51 IC50 / yeast (Candida albicans) CYP51 IC50), the “ratio of IC50 values (human/yeast) against CYP51” value is recorded as 55. Moreover, the “Kow (log P)” value in data set [5] is reported as 3.72. The “Sol. Water” value in data set [2] was 100 mg/L (20°). The Sol. hexane in data set [3] (25° C.) was 47 g/L (25° C.). Also, in data set [3] (setting [6]), the “Sol. DCM” value is reported as “Completely misc” and the Sol. toluene entry is “Completely misc”.
